The test system of test [1] is Karpas 299 cells. Put plainly: Cell viability assay (Alamar Blue). The class given is cell-based, human. The conditions noted are these: 72 hours incubation, read-out: IC50 (drug concentration where half of the cells are killed). Here is the method:
Cell culture. Karpas 299 cells (ATCC) were maintained in RPMI-1640 at 37° C. in a 5% CO2 humidified atmosphere. The medium was supplemented with 20% (v/v) heat-inactivated fetal bovine serum (FBS), and 1% (v/v) penicillin-streptomycin. All reagents were obtained from Gibco.
Cell viability assay. Cells at a concentration of 10,000 cells/mL were seeded in a sterile, tissue culture-treated, 96-well clear bottom plate for 24 hours at 37° C. in a 5% CO2 humidified atmosphere. Cells were then incubated with fresh media with 0.02 nM to 200 nM VcMMAE for 72 hours. At 92 hours, Alamar Blue (ThermoFisher) was added, and cell viability was measured at 96 hours according to the manufacturer's instructions using a fluorescence plate reader with […].
To evaluate the efficacy of TMV-vcMMAE, cell viability assays were performed using Alamar Blue assay Alamar Blue reagent is primarily made of resazurin, a nontoxic cell permeable non-fluorescent blue molecule. […]
Karpas 299 cells were seeded for 24 hours and then incubated with free vcMMAE or TMV-MMAE for 72 hours. At 92 hours, Alamar Blue was added and the cells fluorescence was measured after 4 hours of incubation at 540 nm excitation and 610 nm emission. The results for both free vcMMAE and TMV-MMAE are plotted in FIG. 4, and the IC50 values were calculated. […]

The conditions of test [2]: vary with assay set up, time course and cell lines used; read-out: IC50 values in the literature; cited from earlier work.

Numbered stars: 1 amine (or outer) side, 2 acyl side, 3 side chain; on linkers, the order of the positions; unused ones are H or OH. Square brackets hold non-standard residues; d marks the D form. Peptide text beside a SMILES is read from it. * marks the point of attachment. Dolaproine = CO[C@@H]([C@@H]1CCCN1)[C@@H](C)C(=O)O; Hexanoyl(6-maleimido) = O=C1C=CC(=O)N1CCCCCC(=O)*; Dil = CC[C@H](C)[C@H](NC)[C@@H](CC(=O)O)OC; PABC = O=C(OCc1ccc(N[*:1])cc1)[*:2]; X1 = C[C@@H](N*)[C@@H](O)c1ccccc1; Cit = NC(=O)NCCC[C@H](N)C(=O)O; NMeV = CN[C@H](C(=O)O)C(C)C

With `CC[C@H](C)[C@@H]([C@@H](CC(=O)N1CCC[C@H]1[C@H](OC)[C@@H](C)C(=O)N[C@H](C)[C@@H](O)c1ccccc1)OC)N(C)C(=O)[C@@H](NC(=O)[C@H](C(C)C)N(C)C(=O)OCc1ccc(NC(=O)[C@H](CCCNC(N)=O)NC(=O)[C@@H](NC(=O)CCCCCN2C(=O)C=CC2=O)C(C)C)cc1)C(C)C` [vcMMAE, valine-citrulline monomethyl auristatin E] ({Hexanoyl(6-maleimido)}-V[Cit][PABC][NMeV]V[Dil][Dolaproine]-X1), the results for the IC50 in test [1] and in test [2] were roughly 25.8 nM and roughly 5 nM, respectively.

Source of the values: patent US11253610B2, “Plant virus particles for delivery of antimitotic agents” (CASE WESTERN RESERVE UNIVERSITY, priority 2015, dated 2022).
